The source made the active and inactive calls.
Legend:
Vero [1] = assay: cells; format: functional, cell-based; details: Chlorocebus sabaeus
[2] = THP-1 cell cytotoxicity, dose response, cytotoxicity control for non-replicating M. tuberculosis project (AID 489025); format: functional
[3] = Vero E6 cell cytotoxicity, dose response, cytotoxicity control for non-replicating M. tuberculosis project, secondary assay (AID 492998); format: functional, VeroE6; details: Vero C1008
Streptococcus = assay: Group A Streptococcus viability loss, dose response, counter-screen for streptokinase expression inhibitor project, luminescence, BacTiterGlo (AID 1915); format: functional, organism-based;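 note: potency for reduction of bacterial viability or growth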
cells [4] = format: functional
[5] = tested on: Streptococcus sp. 'group A'; assay: growth inhibition of control SK(-) GAS strain, dose response, counter-screen for streptokinase expression inhibitor project, luminescence, kanamycin, BacTiterGlo, confirmation (AID 1900); format: functional, organism-based
[6] = HepG2 cell cytotoxicity, dose response, cytotoxicity control for non-replicating M. tuberculosis project (AID 489018); format: functional; details: Mycobacterium tuberculosis
Vero [7] = assay: cells; format: functional; details: Chlorocebus sabaeus
cells [8] = format: functional, cell-based
HEK293 [9] = assay: inhibitors of LMP1-driven NF-kB reporter, dose response, cell-based, HEK293, luciferase, cherry-pick (AID 588343); format: functional; details: Homo sapiens
cells [10] = format: functional, cell-based; remark: listed apart in the source
[11] = A Cell Based Secondary Assay To Explore Cytotoxicity of Compounds that Sensitize Mycobacterium Tuberculosis to Beta-Lactam Antibiotics.; format: functional
HEK293 [12] = assay: cells; format: functional, cell-based; details: Homo sapiens
[13] = target: Nucleotide-binding oligomerization domain-containing protein 2 (Homo sapiens, UniProt Q9HC29); assay: NOD2 signaling inhibitors, cell-based, luminescence, uHTS, HEK293 (AID 1566); format: functional
[14] = cytotoxicity toward NIH3T3 fibroblasts, dose response, counter-screen, cell-based, ATP luminescence, mouse fibroblasts (AID 2010); format: functional;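 note: cells exposed to compound for about 90 hours before reading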
HEK293 [15] = assay: NOD1 signaling inhibitors, primary screen, cell-based, luminescence, uHTS (AID 1578); format: functional; details: Homo sapiens
HEK293 [16] = assay: NOD2 signaling inhibitors in MDP-stimulated cells, cell-based, uHTS, luminescence (AID 2001); format: functional; details: Homo sapiens
INS1 = assay: beta cell apoptosis inhibitors, cytokine rescue, dose response, luminescence, retest (AID 449756); format: functional, cell-based; details: Rattus norvegicus;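 note: cell death triggered by IL-1 beta plus TNF-alpha plus IFN-gamma mixture; protective hits raise ATP signal compared with cytokine alone wells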
Paired box protein Pax-8 = Paired box protein Pax-8 (Homo sapiens, UniProt Q06710); assay: inhibitors of PAX8-driven TPO luciferase reporter, dose response, RMG-I cells, cherry-pick (AID 687027); format: functional, cell-based;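 note: luciferase reporter driven by Pax8 target thyroperoxidase promoter measured by SteadyGlo luminescence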
HEK293 [17] = assay: cells; format: functional, cell-based; details: Homo sapiens; remark: listed apart in the source
[18] = inhibitors of intracellular T. cruzi replication, confirmation, NIH3T3 host cells, beta-gal luminescence (AID 2044); format: functional, cell-based;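 note: intracellular parasites grown in NIH/3T3 mouse fibroblasts as host cells; luminescent beta-galactosidase reporter signal from transgenic T. cruzi replicating inside host cells; inhibitors lower the luminescence signal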
HEK293 [19] = assay: cells; format: functional, cell-based; details: Homo sapiens; remark: listed apart in the source
[20] = target: Acyl-homoserine lactone acylase PvdQ (Pseudomonas aeruginosa (strain LESB58), UniProt Q9I194); assay: P. aeruginosa PvdQ acylase inhibitors, dose response, biochemical, fluorescence, plate reader and imaging, cherry-picks (AID 493231)
[21] = target: G-protein coupled receptor 55 (Homo sapiens, UniProt Q9Y2T6); assay: GPR55 agonists via beta-arrestin recruitment, primary screen, imaging, U2OS cells, beta-arrestin-GFP redistribution (AID 1961); format: functional
Protein Rev = Protein Rev (Human immunodeficiency virus type 1 group M subtype B (isolate HXB2)(HIV-1), UniProt P04618); assay: inhibitors of Rev binding to RRE RNA, dose response, biochemical, fluorescence polarization, HIV-1 (AID 434976); set-up: species or system Human immunodeficiency virus 1
[22] = target: Female germline-specific tumor suppressor gld-1 (Caenorhabditis elegans, UniProt Q17339); assay: inhibitors of GLD-1 binding to TGE RNA, dose response, biochemical, fluorescence polarization, C. elegans (AID 2802);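 note: fluorescence polarization of labeled TGE RNA bound by purified gld-1 protein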
[23] = A cytotoxicity screen of small molecule inhibitors of the PhoP region in Salmonella typhi identified in the primary screen. [Related pubchem assays: 1850, 1864, 1985 ]; format: functional
[24] = HEp-2 cell cytotoxicity, dose response, cytotoxicity control for RSV inhibitor project, HTS (AID 2410); format: functional; details: human respiratory syncytial virus
cells [25] = assay: cells
Nonstructural protein 1 = Nonstructural protein 1 (Influenza A virus, UniProt Q194T2); format: functional, Influenza A virus (A/California/07/2009(H1N1))
Vero [26] = assay: Vero cell cytotoxicity, cytotoxicity control for flavivirus capping enzyme inhibitors (AID 588742); format: functional; details: Chlorocebus sabaeus
[27] = target: T1, Zinc finger protein mex-5 (Caenorhabditis elegans, UniProt Q9XUB2); assay: MEX-5/TCR-2 RNA interaction inhibitors, dose response, biochemical, C. elegans, fluorescence polarization (AID 1960)
T1 sequence (Q9XUB2 whole entry): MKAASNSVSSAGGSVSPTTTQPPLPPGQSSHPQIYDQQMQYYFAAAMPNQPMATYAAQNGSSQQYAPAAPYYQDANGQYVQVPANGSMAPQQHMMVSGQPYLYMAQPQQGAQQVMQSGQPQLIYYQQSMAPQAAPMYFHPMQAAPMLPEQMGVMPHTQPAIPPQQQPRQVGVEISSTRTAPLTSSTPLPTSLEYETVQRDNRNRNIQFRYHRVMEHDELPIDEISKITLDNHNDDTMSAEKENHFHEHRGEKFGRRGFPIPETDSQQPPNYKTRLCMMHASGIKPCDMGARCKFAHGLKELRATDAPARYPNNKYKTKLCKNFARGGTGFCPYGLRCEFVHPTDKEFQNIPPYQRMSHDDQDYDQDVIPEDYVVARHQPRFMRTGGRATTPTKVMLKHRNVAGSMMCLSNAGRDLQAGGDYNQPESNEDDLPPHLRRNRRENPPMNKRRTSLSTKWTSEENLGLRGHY

[28] = target: T2, RNA-binding protein pos-1 (Caenorhabditis elegans, UniProt G5EF15); assay: inhibitors of POS-1/mex-3 RNA binding, dose response, biochemical, fluorescence polarization (AID 1964);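 note: purified POS-1 fused to maltose binding protein made in E. coli; potency of compounds blocking POS-1 binding to fluorescent RNA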
T2 sequence (G5EF15 whole entry): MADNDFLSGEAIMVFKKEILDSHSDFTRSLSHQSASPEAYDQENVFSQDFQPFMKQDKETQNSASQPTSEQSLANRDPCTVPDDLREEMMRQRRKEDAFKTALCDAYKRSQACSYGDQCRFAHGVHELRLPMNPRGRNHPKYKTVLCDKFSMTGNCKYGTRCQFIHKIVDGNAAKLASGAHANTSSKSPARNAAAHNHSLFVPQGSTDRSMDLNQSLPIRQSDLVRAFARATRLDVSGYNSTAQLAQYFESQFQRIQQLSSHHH

[29] = target: Neurotensin receptor type 1 (Homo sapiens, UniProt P30989); format: functional;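 note: Image-based confirmatory dose-response assay measuring agonist activity at NTR1; NTR1-expressing U2OS osteosarcoma cells imaged for beta-arrestin GFP spot formation; agonist potency where compounds increase beta-arrestin recruitment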
Melanocortin receptor 4 = Melanocortin receptor 4 (Homo sapiens, UniProt P32245); format: functional, cell-based;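 note: Cell-based assay with luminescence read-out, confirmatory dose-response testing for agonist activity of biased ligands at MC4R; human U2OS cells with tagged receptor and beta-arrestin; potency of agonists that increase receptor coupling to beta-arrestin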
Cytochrome P450 2D6 = Cytochrome P450 2D6 (Homo sapiens, UniProt P10635); assay: qHTS Assay for Inhibitors and Substrates of Cytochrome P450 2D6. [Related pubchem assays: 410 ]; format: ADME; details: read-out: Potency
Cytochrome P450 2C9 = Cytochrome P450 2C9 (Homo sapiens, UniProt P11712); details: Potency
[30] = target: Intestinal-type alkaline phosphatase (Homo sapiens, UniProt P09923); assay: Dose Response confirmation of uHTS hits from a small molecule inhibitors of human intestinal alkaline phosphatase via a luminescent assay. [Related pubchem assays (depositor defined):AID2544, AID2574]; format: functional
Genome polyprotein = Genome polyprotein (dengue virus type 2, UniProt P29990); assay: Dengue-2 NS5 methyltransferase inhibitors, primary screen, biochemical, confirmation dose response (AID 588689); format: functional
Hexokinase HKDC1 = Hexokinase HKDC1 (Homo sapiens, UniProt Q2TB90); assay: HKDC1 hexokinase inhibitors, dose response, biochemical, W721R variant (AID 504729); format: functional
[31] = microbe, parasite or virus in culture; format: functional; details: Mycobacterium tuberculosis
[32] = Luminescence Cell-Based Dose Retest to Confirm Inhibitors of Cancer Stem Cells. [Related pubchem assays (depositor defined):AID2717, AID2721]; format: functional; details: Homo sapiens

Cytochrome P450 2D6, sequence (P10635 whole entry): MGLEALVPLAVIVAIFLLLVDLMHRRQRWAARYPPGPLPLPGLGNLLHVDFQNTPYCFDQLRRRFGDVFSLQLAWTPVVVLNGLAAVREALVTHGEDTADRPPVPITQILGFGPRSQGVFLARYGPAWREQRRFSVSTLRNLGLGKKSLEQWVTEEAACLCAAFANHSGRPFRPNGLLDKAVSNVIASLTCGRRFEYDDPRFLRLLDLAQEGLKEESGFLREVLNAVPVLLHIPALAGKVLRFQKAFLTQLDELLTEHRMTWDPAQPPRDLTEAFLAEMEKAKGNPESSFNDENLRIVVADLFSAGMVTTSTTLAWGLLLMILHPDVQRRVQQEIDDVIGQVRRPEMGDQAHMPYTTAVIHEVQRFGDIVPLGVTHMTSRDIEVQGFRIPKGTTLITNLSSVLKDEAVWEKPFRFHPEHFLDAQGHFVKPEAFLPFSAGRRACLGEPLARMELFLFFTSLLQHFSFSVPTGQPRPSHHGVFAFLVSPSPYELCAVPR
Acyl-homoserine lactone acylase PvdQ, sequence (Q9I194 24-193 limits assumed): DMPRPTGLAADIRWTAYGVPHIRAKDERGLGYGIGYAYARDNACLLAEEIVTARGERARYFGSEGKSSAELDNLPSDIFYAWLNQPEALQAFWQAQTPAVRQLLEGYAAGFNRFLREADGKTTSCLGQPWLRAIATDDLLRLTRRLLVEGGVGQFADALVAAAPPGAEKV
Acyl-homoserine lactone acylase PvdQ, sequence (Q9I194 217-762 limits assumed): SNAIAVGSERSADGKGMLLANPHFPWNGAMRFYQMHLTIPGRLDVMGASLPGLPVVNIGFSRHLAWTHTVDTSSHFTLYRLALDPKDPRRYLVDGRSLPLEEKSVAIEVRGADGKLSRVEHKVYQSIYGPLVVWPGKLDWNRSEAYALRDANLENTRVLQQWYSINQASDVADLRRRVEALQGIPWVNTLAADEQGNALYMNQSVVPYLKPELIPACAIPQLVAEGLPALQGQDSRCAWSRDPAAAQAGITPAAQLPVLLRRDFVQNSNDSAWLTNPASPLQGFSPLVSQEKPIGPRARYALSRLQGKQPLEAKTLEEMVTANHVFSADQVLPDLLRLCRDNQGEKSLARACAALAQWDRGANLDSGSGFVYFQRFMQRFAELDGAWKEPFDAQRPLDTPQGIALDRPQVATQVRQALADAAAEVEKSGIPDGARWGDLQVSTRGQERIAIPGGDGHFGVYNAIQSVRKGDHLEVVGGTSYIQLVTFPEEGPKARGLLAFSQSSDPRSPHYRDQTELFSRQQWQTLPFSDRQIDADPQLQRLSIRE
Female germline-specific tumor suppressor gld-1, sequence (Q17339 whole entry): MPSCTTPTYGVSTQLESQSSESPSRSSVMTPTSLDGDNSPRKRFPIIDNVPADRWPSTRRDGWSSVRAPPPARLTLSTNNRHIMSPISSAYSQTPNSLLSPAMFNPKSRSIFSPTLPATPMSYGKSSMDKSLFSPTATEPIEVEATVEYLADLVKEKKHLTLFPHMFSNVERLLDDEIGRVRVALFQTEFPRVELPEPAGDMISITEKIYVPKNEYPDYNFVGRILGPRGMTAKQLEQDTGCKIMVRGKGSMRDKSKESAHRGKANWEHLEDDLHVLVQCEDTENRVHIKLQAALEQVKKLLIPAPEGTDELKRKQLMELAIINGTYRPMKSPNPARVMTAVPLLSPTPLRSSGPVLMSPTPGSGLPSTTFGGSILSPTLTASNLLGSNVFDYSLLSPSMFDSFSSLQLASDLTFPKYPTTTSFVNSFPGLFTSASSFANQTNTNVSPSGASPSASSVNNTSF
Protein Rev, sequence (P04618 whole entry): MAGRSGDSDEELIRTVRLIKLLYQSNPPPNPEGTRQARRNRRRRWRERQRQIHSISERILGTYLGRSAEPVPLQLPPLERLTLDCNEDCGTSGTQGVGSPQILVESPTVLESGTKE
G-protein coupled receptor 55, sequence (Q9Y2T6 whole entry): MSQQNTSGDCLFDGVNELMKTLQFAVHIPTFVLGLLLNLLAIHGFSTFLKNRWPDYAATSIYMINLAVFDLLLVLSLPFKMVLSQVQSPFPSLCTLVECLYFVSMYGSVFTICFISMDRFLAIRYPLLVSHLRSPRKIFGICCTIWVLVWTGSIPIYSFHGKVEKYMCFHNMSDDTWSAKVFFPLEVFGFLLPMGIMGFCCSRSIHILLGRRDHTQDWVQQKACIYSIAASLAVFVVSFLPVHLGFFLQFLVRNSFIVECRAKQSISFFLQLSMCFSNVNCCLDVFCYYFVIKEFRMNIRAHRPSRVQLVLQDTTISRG
Nucleotide-binding oligomerization domain-containing protein 2, sequence (Q9HC29 whole entry, the tested form may be a part): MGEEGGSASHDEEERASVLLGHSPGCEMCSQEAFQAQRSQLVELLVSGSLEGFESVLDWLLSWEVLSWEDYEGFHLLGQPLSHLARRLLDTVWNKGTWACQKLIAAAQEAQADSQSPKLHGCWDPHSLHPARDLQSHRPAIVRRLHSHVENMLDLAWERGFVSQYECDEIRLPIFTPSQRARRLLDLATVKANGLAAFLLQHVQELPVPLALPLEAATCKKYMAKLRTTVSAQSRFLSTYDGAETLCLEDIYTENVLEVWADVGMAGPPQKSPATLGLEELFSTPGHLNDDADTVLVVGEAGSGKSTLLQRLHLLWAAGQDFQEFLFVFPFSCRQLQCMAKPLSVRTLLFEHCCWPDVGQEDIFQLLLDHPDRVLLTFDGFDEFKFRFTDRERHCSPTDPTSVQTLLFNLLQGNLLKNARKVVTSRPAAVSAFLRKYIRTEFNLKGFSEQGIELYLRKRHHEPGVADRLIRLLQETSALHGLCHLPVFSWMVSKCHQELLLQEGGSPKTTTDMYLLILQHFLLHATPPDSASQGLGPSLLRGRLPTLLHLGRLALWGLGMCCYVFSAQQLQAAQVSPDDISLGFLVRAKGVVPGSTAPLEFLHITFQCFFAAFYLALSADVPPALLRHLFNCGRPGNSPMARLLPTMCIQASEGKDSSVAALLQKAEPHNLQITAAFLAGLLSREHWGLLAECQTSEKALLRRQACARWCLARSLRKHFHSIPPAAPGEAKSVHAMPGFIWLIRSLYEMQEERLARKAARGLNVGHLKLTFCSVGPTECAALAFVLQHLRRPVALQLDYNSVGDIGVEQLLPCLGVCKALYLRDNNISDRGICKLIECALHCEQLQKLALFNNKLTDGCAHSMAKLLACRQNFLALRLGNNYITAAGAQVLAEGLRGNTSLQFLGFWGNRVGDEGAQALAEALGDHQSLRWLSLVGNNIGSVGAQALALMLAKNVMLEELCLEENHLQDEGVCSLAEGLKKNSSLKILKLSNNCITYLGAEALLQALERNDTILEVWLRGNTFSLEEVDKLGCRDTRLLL
Neurotensin receptor type 1, sequence (P30989 whole entry): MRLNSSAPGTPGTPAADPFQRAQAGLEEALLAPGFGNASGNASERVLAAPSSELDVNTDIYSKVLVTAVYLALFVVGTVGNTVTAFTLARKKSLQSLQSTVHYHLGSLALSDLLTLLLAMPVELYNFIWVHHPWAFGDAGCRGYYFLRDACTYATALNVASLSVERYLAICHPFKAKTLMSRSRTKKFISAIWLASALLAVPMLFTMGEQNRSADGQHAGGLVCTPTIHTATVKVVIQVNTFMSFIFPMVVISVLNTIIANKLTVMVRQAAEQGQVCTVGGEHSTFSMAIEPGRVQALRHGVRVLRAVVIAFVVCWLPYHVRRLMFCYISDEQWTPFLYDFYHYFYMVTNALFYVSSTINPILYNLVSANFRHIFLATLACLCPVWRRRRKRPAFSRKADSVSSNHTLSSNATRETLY
Melanocortin receptor 4, sequence (P32245 whole entry): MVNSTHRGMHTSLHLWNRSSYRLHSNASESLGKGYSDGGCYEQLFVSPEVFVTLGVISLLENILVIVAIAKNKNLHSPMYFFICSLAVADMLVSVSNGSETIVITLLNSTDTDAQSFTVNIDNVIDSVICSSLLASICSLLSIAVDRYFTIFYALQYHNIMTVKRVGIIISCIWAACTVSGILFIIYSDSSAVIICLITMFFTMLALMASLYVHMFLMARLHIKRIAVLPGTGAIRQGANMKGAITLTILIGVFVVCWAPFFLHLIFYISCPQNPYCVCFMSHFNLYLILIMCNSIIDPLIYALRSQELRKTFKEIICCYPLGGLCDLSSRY
Nonstructural protein 1, sequence (Q194T2 whole entry): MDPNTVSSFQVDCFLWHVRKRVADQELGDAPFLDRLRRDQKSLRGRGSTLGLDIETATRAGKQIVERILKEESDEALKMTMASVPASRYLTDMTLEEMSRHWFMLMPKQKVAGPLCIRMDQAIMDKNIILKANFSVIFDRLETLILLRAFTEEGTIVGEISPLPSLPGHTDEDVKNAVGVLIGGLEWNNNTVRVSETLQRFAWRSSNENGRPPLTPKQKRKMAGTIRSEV
Paired box protein Pax-8, sequence (Q06710 whole entry): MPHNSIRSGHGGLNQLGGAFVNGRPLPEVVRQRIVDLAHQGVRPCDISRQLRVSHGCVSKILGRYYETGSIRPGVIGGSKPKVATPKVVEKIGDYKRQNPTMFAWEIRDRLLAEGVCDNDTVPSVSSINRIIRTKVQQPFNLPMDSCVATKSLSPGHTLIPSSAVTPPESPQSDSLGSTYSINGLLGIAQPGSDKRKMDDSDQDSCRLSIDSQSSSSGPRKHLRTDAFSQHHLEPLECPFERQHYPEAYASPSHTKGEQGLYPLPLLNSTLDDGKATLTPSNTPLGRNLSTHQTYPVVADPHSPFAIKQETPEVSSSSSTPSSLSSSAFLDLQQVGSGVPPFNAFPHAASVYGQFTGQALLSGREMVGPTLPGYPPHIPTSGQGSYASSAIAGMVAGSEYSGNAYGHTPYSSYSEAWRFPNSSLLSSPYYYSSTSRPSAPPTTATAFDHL

O=C(NNC(=S)NC(=O)c1cn(-c2ccccc2)nc1-c1ccccc1)c1ccncc1
IC50 (Vero [1]): 24.4 µM (active) | CC50 [2]: 13.6 µM (active) | CC50 [3]: 10 µM (active) | EC50 (Streptococcus): 0.94 µM (active) | IC50 (cells [4]): 2.75 µM (active) | EC50 [5]: 0.239 µM (active) | CC50 [6]: > 20 µM (active) | CC50 (Vero [7]): 24.3 µM (active)

COc1cccc(/C=N/NC(=O)CSCC(=O)Nc2ccccc2)c1O
EC50 (cells [8]): 12.7 µM (active) | AC50 (HEK293 [9]): 25.4 µM (active) | EC50 (cells [10]): > 350 µM (not active) | CC50 [11]: 21.3 µM (active)

C=C(C(=O)c1ccccc1)C(C(=C)C(=O)c1ccccc1)c1ccc(OC)cc1
IC50 (HEK293 [12]): > 20 µM (inactive) | IC50 (Vero [1]): > 25 µM (active) | EC50 [13]: > 20 µM (inactive) | EC50 [14]: 10.4 µM (active) | EC50 (HEK293 [15]): > 20 µM (inactive) | IC50 (HEK293 [16]): 5.4 µM (inactive) | AC50 (INS1): 6.58 µM (active) | AC50 (Paired box protein Pax-8): 2.66 µM (active) | IC50 (HEK293 [17]): > 20 µM (inactive) | EC50 [18]: 2.88 µM (active) | IC50 (HEK293 [19]): 5.78 µM (active) | CC50 (Vero [7]): 11.2 µM (active)

Cc1ccc(OCC(=O)N/N=C/c2cn(C)c3ccccc23)cc1
CC50 [11]: > 40 µM (active)

O=C(c1cccc([N+](=O)[O-])c1)N1CC2C3C=CC(C3)C2C1 (stereo not drawn)
AC50 [20]: 7.93 µM (active)

O=C(Nc1ccc(Cl)c(Cl)c1)N(Cc1cccnc1)Cc1ccco1
EC50 [14]: > 60 µM (not active) | EC50 [21]: > 32 µM (inactive) | EC50 [18]: 0.552 µM (active)

CCCCn1c(=O)[nH]c2nc3cc(NC(C)=O)ccc3nc2c1=O
IC50 (Protein Rev): 6.5 µM (active) | IC50 [22]: 0.84 µM (active)

O=C(N/N=C/c1cccnc1)c1cccc(Cl)c1
EC50 [23]: > 50 µM (active)

CCOc1ccc2nc(NC(=O)C3(C)CC3(Br)Br)sc2c1 (stereo not drawn)
CC50 [24]: 19.4 µM (active) | IC50 (cells [25]): 47.8 µM (active)

O=C1/C(=C\c2cccc([N+](=O)[O-])c2O)SC(=S)N1Cc1ccccc1
IC50 (HEK293 [12]): 18.9 µM (active) | EC50 [13]: 9.56 µM (active) | IC50 (Nonstructural protein 1): 16.4 µM (active) | EC50 (HEK293 [15]): 5.91 µM (active) | IC50 (HEK293 [16]): 4.7 µM (inactive) | IC50 (HEK293 [17]): > 20 µM (inactive) | CC50 (Vero [26]): 22.8 µM (active)

Cc1c(O)ccc(-c2n[nH]c(C(=O)O)c2-c2nc3ccccc3s2)c1O
IC50 (Protein Rev): > 75.4 µM (not active) | EC50 [27]: 14 µM (inconclusive) | EC50 [28]: 15.3 µM (active) | IC50 [22]: 5.41 µM (active)

COC(=O)c1cc(-c2ccc(OC)cc2)on1
AC50 [20]: 0.67 µM (active) | IC50 (cells [4]): 3.5 µM (active)

CC(=O)c1c(C(C)=O)c(C)n(Cc2ccc3c(c2)OCO3)c1C
EC50 [21]: > 32 µM (inactive)

CCC(C)NC(=O)c1c(N)n(/N=C/c2cccnc2)c2nc3ccccc3nc12 (stereo not drawn)
EC50 [29]: > 40 µM (inactive) | EC50 (Melanocortin receptor 4): > 89.2 µM (inactive)

COc1ccccc1C(=O)Nc1nnc(-c2ccc(F)cc2)o1
EC50 [23]: > 50 µM (active)

O=C(O)[C@@H]1[C@@H]2C[C@H]3c4[nH]c5ccccc5c4CCN3C[C@@H]2CC[C@@H]1O
AC50 (Cytochrome P450 2D6): 31.6 µM (inconclusive)

O=c1cc(-c2ccccc2)oc2c1ccc1ccccc12 [ALPHA-NAPHTHOFLAVONE]
AC50 (Cytochrome P450 2C9): 7.94 µM (inconclusive) | AC50 (Cytochrome P450 2D6): 12.6 µM (inconclusive)

CCCCOc1cccc(C2C(C(=O)c3ccc4c(c3)OCCO4)=C(O)C(=O)N2CCN2CCOCC2)c1 (stereo not drawn)
IC50 [30]: > 100 µM (inactive)

CCC(c1ccccc1)C(CC)c1cc(O)c(O)c(O)c1 (stereo not drawn)
IC50 (Genome polyprotein): 39.4 µM (active) | IC50 (Hexokinase HKDC1): 18.3 µM (active)

CN1CCN(C2Cc3ccccc3Sc3cc(C(F)(F)F)ccc32)CC1 (stereo not drawn)
CC50 [31]: 17.9 µM (active) | AC50 [32]: 6.72 µM (active) | CC50 [2]: 17.4 µM (active) | CC50 [3]: > 20 µM (active) | IC50 (cells [4]): 14.9 µM (active) | CC50 [6]: > 20 µM (active)

Reference: ChEMBL document CHEMBL1201862, “PubChem BioAssay data set” (2004)
